Test results from BigSolDB 2.1.

COC(=O)NCCCCCCNC(=O)OC
solubility (mole fraction)
Conditions	298.15 K	300.15 K	303.15 K	308.15 K	313.15 K	318.15 K	323.15 K	328.15 K	333.15 K
in dimethyl carbonate	0.00596	0.00689	0.00839	0.0117	0.0161	0.0207	0.026	0.0338	0.042
in ethanol	0.0155	0.0179	0.0205	0.0279	0.0355	0.0463	0.0625	0.0769	0.0987
in ethyl acetate	0.00814	0.00976	0.0124	0.0176	0.0233	0.029	0.0369	0.0445	0.0536
in toluene	0.00731	0.00912	0.0111	0.0167	0.0232	0.0353	0.0462	0.0614	0.0824
in water	6.21e-05	6.92e-05	7.91e-05	0.000106	0.000146	0.000185	0.00025	0.000339	0.000439
